From PMC9321718 (Pharmaceuticals, 2022)
≈ marks a conversion by molar mass, not a printed value. Entries after “also recorded” stand apart in the source; their conditions may differ. Like-named read-outs stand apart in the source and are kept apart here.

What was measured:
E. coli = assay: Synergy of adjuvant-MCD with Lev-MCD, growth inhibition zones in agar; format: cell-based, Escherichia coli; conditions: for D, diameter of bacterial inhibition zone surrounding Lev–MCD with APAB-MCD: Lev-MCD + X-MCD (1:2), ±0.5; for ϕLev = (D/DLev)^2: ±0.1; for FICI: ±15%; for increase in Lev antibacterial activity / efficacy: growth inhibition diameter measurement in agar, inclusion complexes with MCD
Experimental: (§1) We obtained complex formulations containing adjuvants-MCD and Lev-MCD. These complexes were referred to as enhanced Lev. The synergy effect was studied at a constant concentration of Lev and a variable concentration of an enhancer. […] Based on the D/DLev ratio, the effectiveness of cooperative antibacterial action (ϕ) of the adjuvant and Lev was calculated. The fractional inhibitory concentration (FIC) parameter was introduced: at a fixed Lev concentration, the FIC of adjuvant corresponds to the minimum fractional adjuvant concentration at which the antibacterial effect was still manifest (MICadjuvant in the presence of Lev). The fractional inhibitory concentration index (FICI) characterizes the ratio of the active Lev and adjuvant concentrations to the MIC values of these substances individually: FICI=[Lev]/MIC(Lev)[…][adjuvant]/MIC(adjuvant) (see Section 3).
(§2) The FICI was interpreted as: synergism (<0.35), additivity (0.35–0.75), indifference (0.75–1.4), or antagonism (>1.4). FICI is designed to determine the type of Lev interaction with adjuvants.
(§3) The study of the antibacterial effect of Lev and adjuvants was carried out by (a) agar diffusion test and (b) broth micro-dilution method. (a) A measured 500 µL of 100-fold culture dilution was evenly distributed over a solid nutrient medium (LB, pH 7.2) on a Petri dish. After 20 min, agar disks with a diameter of 9 mm were removed from the cups and 50 µL of the test samples were placed in the formed wells at the required concentration in a sterile PBS buffer (see Section 3.3 (2)). After 30 min, Petri dishes were placed in a 37 °C thermostat. […] Minimum inhibitory concentrations (MICs) are determined as the infimum of multiple concentrations of an antimicrobial that inhibits the visible growth of a microorganism after overnight incubation. (b) According to the standard broth micro-dilution method, 200 µL of the overnight culture (5 × 10^6 CFU) was placed into a 96 micro-titer plate wells. Then 50 µL of tested samples was added. The range of tested Lev concentration was 4–200 ng/mL, adjuvants concentration was in the range of 0.008–2 mg/mL. […] The dependence of CFU (determined by A600) on the concentration of Lev, APAB or terpenoid (briefly X) was approximated according to the Boltzmann equation (Origin software): CFU = (control CFU)/(1 + exp(([X] − MIC50)/constant value)). […] In other words, the concentration at which the ordinate value (CFU) is equal to 50 or 10% of the control sample minus the background.
(§4) The FICI was interpreted as: synergism (<0.35), additivity (0.35–0.75), indifference (0.76–1.4), or antagonism (>1.4). The essence of this expression is to calculate the average change in the effective concentration compared to MIC. Note that the most important parameter corresponds to a decrease in MIC of Lev. However, FICI is designed to determine the type of interaction Lev with adjuvants.

B. subtilis (NCIB 8054) = assay: Agar diffusion test, MIC; format: cell-based, Bacillus subtilis; conditions: Bacillus subtilis
Experimental: The strains used in this study were Escherichia coli (NCIB 12210) and Bacillus subtilis (NCIB 8054) from National Resource Center All-Russian collection of industrial microorganisms SIC “Kurchatov Institute”). The culture was cultivated for 18–20 h at 37 °C to CFU ≈ 5 × 10^6 – 8 × 10^6 (determined by A600) in liquid nutrient medium Luria–Bertani (pH 7.2): E. coli—without stirring, B. subtilis—with stirring 180 rpm.
The study of the antibacterial effect of Lev and adjuvants was carried out by (a) agar diffusion test and (b) broth micro-dilution method. (a) A measured 500 µL of 100-fold culture dilution was evenly distributed over a solid nutrient medium (LB, pH 7.2) on a Petri dish. After 20 min, agar disks with a diameter of 9 mm were removed from the cups and 50 µL of the test samples were placed in the formed wells at the required concentration in a sterile PBS buffer (see Section 3.3 (2)). After 30 min, Petri dishes were placed in a 37 °C thermostat. After 24 h, the diameters of the growth inhibition zones were measured. Minimum inhibitory concentrations (MICs) are determined as the infimum of multiple concentrations of an antimicrobial that inhibits the visible growth of a microorganism after overnight incubation. (b) According to the standard broth micro-dilution method, 200 µL of the overnight culture (5 × 10^6 CFU) was placed into a 96 micro-titer plate wells. Then 50 µL of tested samples was added. The range of tested Lev concentration was 4–200 ng/mL, adjuvants concentration was in the range of 0.008–2 mg/mL. Optical density measurements at 600 nm were taken at various times (0, 3, and 18 h) to determine the number of cells. The dependence of CFU (determined by A600) on the concentration of Lev, APAB or terpenoid (briefly X) was approximated according to the Boltzmann equation (Origin software): CFU = (control CFU)/(1 + exp(([X] − MIC50)/constant value)). MIC50 and MIC90 are defined as concentrations at which the inhibition of bacterial growth by 50 and 90% is noticeable, respectively. In other words, the concentration at which the ordinate value (CFU) is equal to 50 or 10% of the control sample minus the background.

B. subtilis = assay: Synergy of adjuvant-MCD with Lev-MCD, growth inhibition zones in agar; format: cell-based, Bacillus subtilis; conditions: for D, diameter of bacterial inhibition zone surrounding Lev–MCD with APAB-MCD: Lev-MCD + X-MCD (1:2), ±0.5; for ϕLev = (D/DLev)^2: ±0.1
Experimental: as §1, §2, §3, §4

[1] = B. subtilis, CLev 0.4 μg/mL, ±15%
[2] = B. subtilis, CLev 0.7 μg/mL, ±15%
[3] = B. subtilis, CLev 1.5 μg/mL, ±15%
[4] = NCIB8054, B. subtilis 7 × 10^6 CFU, agar diffusion test, inclusion complexes with MCD, LB pH 7.2, 37 °C, 20 h, read-out: MIC

| Structure (SMILES) | decrease of MICLev in the presence of adjuvant (E. coli; E. coli) | D, diameter of bacterial inhibition zone surrounding Lev–MCD with APAB-MCD (E. coli; E. coli, CLev 0.1 μg/mL) [mm] | ϕLev = (D/DLev)^2 (E. coli; E. coli, CLev 0.1 μg/mL) | FICI (E. coli; E. coli, CLev 0.1 μg/mL) | D, diameter of bacterial inhibition zone surrounding Lev–MCD with APAB-MCD (E. coli; E. coli, CLev 0.15 μg/mL) [mm] | ϕLev = (D/DLev)^2 (E. coli; E. coli, CLev 0.15 μg/mL) | FICI (E. coli; E. coli, CLev 0.15 μg/mL) | FICadjuvant (B. subtilis; B. subtilis, CLev 0.4 μg/mL) [mg/mL] | Type of Interaction between Lev and X (B. subtilis; B. subtilis, CLev 0.4 μg/mL) | D, diameter of bacterial inhibition zone surrounding Lev–MCD with APAB-MCD (B. subtilis; B. subtilis, CLev 0.4 μg/mL) [mm] | ϕLev = (D/DLev)^2 (B. subtilis; B. subtilis, CLev 0.4 μg/mL) | FICI (B. subtilis; [1]) | FICadjuvant (B. subtilis; B. subtilis, CLev 0.7 μg/mL) [mg/mL] | Type of Interaction between Lev and X (B. subtilis; B. subtilis, CLev 0.7 μg/mL) | D, diameter of bacterial inhibition zone surrounding Lev–MCD with APAB-MCD (B. subtilis; B. subtilis, CLev 0.7 μg/mL) [mm] | ϕLev = (D/DLev)^2 (B. subtilis; B. subtilis, CLev 0.7 μg/mL) | FICI (B. subtilis; [2]) | FICadjuvant (B. subtilis; B. subtilis, CLev 1.5 μg/mL) [mg/mL] | Type of Interaction between Lev and X (B. subtilis; B. subtilis, CLev 1.5 μg/mL) | MIC (B. subtilis (NCIB 8054); [4]) [µg/mL] | other results |
| --- | --- | --- | --- | --- | --- | --- | --- | --- | --- | --- | --- | --- | --- | --- | --- | --- | --- | --- | --- | --- | --- |
| C=CCc1cc(OC)c2c(c1OC)OCO2 [Apiol] | up to twice | 14.5 | 1.6 | 0.35 | 14 | 2.0 | 0.20 | – | – | – | – | – | – | – | – | – | – | – | – | – | MIC (B. subtilis (NCIB 8054); NCIB8054, 20 h, pH 7.2): 5300 µg/mL (≈ 23.8 mM) |
| C=CCc1ccc(O)c(OC)c1 [Eugenol, 4-allyl-2-methoxyphenol] | – | 20 | 3.3 | 0.10 | 15 | 2.3 | 0.05 | 0.10 ± 0.01 | Synergism (synergism (<0.35)) | 14.5 | 1.5 | 0.16 | 0.2 ± 0.02 | Additivity (additivity (0.35–0.75)) | 16 | 1.2 | 0.56 | 0.10 ± 0.01 | Additivity (additivity (0.35–0.75)) | 1000 (≈ 6.09 mM) | D, diameter of bacterial inhibition zone surrounding Lev–MCD with APAB-MCD (E. coli; E. coli, CLev 0.03 μg/mL): 14 mm; ϕLev = (D/DLev)^2 (E. coli; E. coli, CLev 0.03 μg/mL): 2.0; FICI (E. coli; E. coli, CLev 0.03 μg/mL): 0.30; D, diameter of bacterial inhibition zone surrounding Lev–MCD with APAB-MCD (E. coli; E. coli, CLev 0.05 μg/mL): 17 mm; ϕLev = (D/DLev)^2 (E. coli; E. coli, CLev 0.05 μg/mL): 2.9; FICI (E. coli; E. coli, CLev 0.05 μg/mL): 0.08; D, diameter of bacterial inhibition zone surrounding Lev–MCD with APAB-MCD (E. coli; E. coli, CLev 0.5 μg/mL): 26 mm; ϕLev = (D/DLev)^2 (E. coli; E. coli, CLev 0.5 μg/mL): 1.3; FICI (E. coli; E. coli, CLev 0.5 μg/mL): 1.3; amplification effect of adjuvant (E. coli; E. coli, at minimal Lev concentrations): 3 fold; MICLev in the presence of adjuvant (E. coli; E. coli, reduced from 0.10 μg/mL): 0.015 to 0.02 µg/mL; decrease of Lev MIC (E. coli; conclusions, bacterium not stated): 3–4 times; increase in Lev antibacterial activity / efficacy (E. coli; listed as EG): over three-fold; also recorded: two–three-fold; D, diameter of bacterial inhibition zone surrounding Lev–MCD with APAB-MCD (B. subtilis; B. subtilis, CLev 1.5 μg/mL): 19 mm; ϕLev = (D/DLev)^2 (B. subtilis; B. subtilis, CLev 1.5 μg/mL): 1.2; FICI (B. subtilis; [3]): 0.60; type of interaction with Lev (B. subtilis; Gram-positive cells (B. subtilis)): additivity |
| CC1CCC(C(C)C)C(O)C1 (stereo not drawn) [Menthol] | up to twice | 13.5 | 1.7 | 0.02 | 14 | 2.0 | 0.15 | – | – | – | – | – | – | – | – | – | – | – | – | 2600 (≈ 16.6 mM) | increase in Lev antibacterial activity / efficacy (E. coli): two–three-fold; FICadjuvant (B. subtilis; B. subtilis, CLev 0.5 μg/mL): 0.17 ± 0.01 mg/mL; Type of Interaction between Lev and X (B. subtilis; B. subtilis, CLev 0.5 μg/mL): Synergism (synergism (<0.35)); D, diameter of bacterial inhibition zone surrounding Lev–MCD with APAB-MCD (B. subtilis; B. subtilis, CLev 0.5 μg/mL): 18.5 mm; ϕLev = (D/DLev)^2 (B. subtilis; B. subtilis, CLev 0.5 μg/mL): 2.4; FICI (B. subtilis; B. subtilis, CLev 0.5 μg/mL, ±15%): 0.11; FICadjuvant (B. subtilis; B. subtilis, CLev 1 μg/mL): 0.17 ± 0.01 mg/mL; Type of Interaction between Lev and X (B. subtilis; B. subtilis, CLev 1 μg/mL): Synergism (synergism (<0.35)); D, diameter of bacterial inhibition zone surrounding Lev–MCD with APAB-MCD (B. subtilis; B. subtilis, CLev 1 μg/mL): 18 mm; ϕLev = (D/DLev)^2 (B. subtilis; B. subtilis, CLev 1 μg/mL): 1.3; FICI (B. subtilis; B. subtilis, CLev 1 μg/mL, ±15%): 0.23; efficiency parameter ϕ (B. subtilis; B. subtilis, adjuvant-MCD with Lev-MCD): 2.4; FICI (B. subtilis; B. subtilis, with Lev): 0.08–0.11; MIC (B. subtilis (NCIB 8054); NCIB8054, B. subtilis, agar diffusion test, read-out: MIC): 2.6 µg/mL (≈ 0.0166 mM) |
| C=CCc1ccc2c(c1)OCO2 [Safrole] | – | – | – | – | 14.5 | 2.1 | 0.09 | 0.17 ± 0.02 | Synergism (synergism (<0.35)) | 14 | 1.4 | 0.08 | 0.33 ± 0.03 | Synergism (synergism (<0.35)) | 16 | 1.1 | 0.28 | 0.15 ± 0.02 | Synergism (synergism (<0.35)) | 3900 (≈ 24 mM) | MICLev in the presence of adjuvant (E. coli): 0.015 to 0.02 µg/mL; D, diameter of bacterial inhibition zone surrounding Lev–MCD with APAB-MCD (B. subtilis; B. subtilis, CLev 1.5 μg/mL): 20 mm; ϕLev = (D/DLev)^2 (B. subtilis; B. subtilis, CLev 1.5 μg/mL): 1.4; FICI (B. subtilis; [3]): 0.27; FICI (B. subtilis; B. subtilis, with Lev): 0.08–0.11 |
